Measurements from PubChem BioAssay (NCI).
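Test compounds were applied to cells in 96-well plates for 48 hours at 5 doses. GI50 = concentration required for 50% inhibition of growth. TGI: concentration producing complete growth inhibition.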

What was measured:
Assay in all cases: growth of human tumour cells (NCI), 48 h
HOP-62 NSCLC = system: HOP-62 NSCLC
M14 melanoma = system: M14 melanoma
OVCAR-8 ovarian = system: OVCAR-8 ovarian
NCI-H23 lung = system: NCI-H23 lung
SK-MEL-28 melanoma = system: SK-MEL-28 melanoma
RXF 393 renal = system: RXF 393 renal
KM12 colon = system: KM12 colon
RPMI-8226 leukemia = system: RPMI-8226 leukemia
NCI-H522 lung = system: NCI-H522 lung
OVCAR-5 ovarian = system: OVCAR-5 ovarian

SMILES | GI50 (HOP-62 NSCLC) | TGI (HOP-62 NSCLC) | GI50 (M14 melanoma) | TGI (M14 melanoma) | GI50 (OVCAR-8 ovarian) | TGI (OVCAR-8 ovarian) | GI50 (NCI-H23 lung) | TGI (NCI-H23 lung) | GI50 (SK-MEL-28 melanoma) | TGI (SK-MEL-28 melanoma) | GI50 (RXF 393 renal) | TGI (RXF 393 renal) | GI50 (KM12 colon) | TGI (KM12 colon) | GI50 (RPMI-8226 leukemia) | TGI (RPMI-8226 leukemia) | GI50 (NCI-H522 lung) | TGI (NCI-H522 lung) | GI50 (OVCAR-5 ovarian) | TGI (OVCAR-5 ovarian)
O=C(NCCCNc1cc(-c2cn(-c3ccccc3)nc2-c2cccc(O)c2)ccn1)c1ccc(F)cc1 | 2.64 µM | 10.8 µM | 1.85 µM | 4.28 µM | 4.01 µM | 21.2 µM | 2.81 µM | 14.8 µM | 1.74 µM | 4.12 µM | 1.63 µM | 4.63 µM | 3.18 µM | 12.3 µM | 1.94 µM | 5.55 µM | 3.09 µM | 11.4 µM | 2.62 µM | 28.6 µM
CCCC(c1cc(C(C)(C)C)c(O)cc1C)c1cc(C(C)(C)C)c(O)cc1C |  | 8 µM |  | 4.51 µM |  | 12.9 µM |  | 6.24 µM |  | 12.4 µM |  | 4.56 µM |  | 11.1 µM |  | 5.77 µM |  | 5.72 µM |  | 4.54 µM
CC(C)[C@]12O[C@H]1[C@@H]1O[C@]13[C@]1(O[C@H]1C[C@H]1C4=C(CC[C@@]13C)C(=O)OC4)[C@@H]2OC(=O)OC(C)(C)C | 0.0146 µM | > 100 µM | 0.0157 µM | 0.0336 µM | 0.0281 µM | > 100 µM | < 0.01 µM | 0.0569 µM | 0.0176 µM |  | < 0.0118 µM | 0.0286 µM | 0.116 µM | 3.41 µM | 0.0195 µM | > 42.5 µM | 0.0137 µM | 0.0635 µM | 0.0419 µM | > 100 µM
COc1ccc2c(c1)OC(N)=C(C#N)C2c1ccc(F)c(F)c1 (centres undefined) | 0.515 µM | > 92.2 µM | 0.325 µM | > 100 µM | 0.602 µM | > 44.3 µM | 1.15 µM | > 100 µM | 3.43 µM | > 100 µM | 0.365 µM | 5.57 µM | 0.349 µM | 26 µM | 0.455 µM | 31.7 µM | 0.255 µM | 9.25 µM | 2.84 µM | > 100 µM
O=C1NC(=N[C@@H]2C[C@H]2c2ccccc2)S/C1=C\c1ccc2ncccc2c1 | 1.67 µM | 6.38 µM | 1.34 µM | > 25 µM | 2.05 µM | 9.69 µM | 3.87 µM | 20.8 µM | 4.46 µM | > 18 µM | 1.12 µM | 4.84 µM | 1.47 µM | > 12.7 µM | 1.28 µM | 7.52 µM | 0.776 µM | 3.12 µM | 4.33 µM | > 20.7 µM
COC(=O)CCC(=O)C(CC(=O)OC)C(=O)CCC(=O)NCCc1ccccc1 (centres undefined) |  | > 100 µM |  | > 100 µM |  | > 100 µM |  | > 100 µM |  | > 100 µM |  | > 100 µM |  | > 100 µM |  | > 100 µM |  | > 100 µM |  | > 100 µM
CNC(=O)N(CCCC(NC(C)=O)C(=O)NCc1ccccc1)Cc1ccccc1 (centres undefined) |  | > 100 µM |  | > 100 µM |  | > 100 µM |  | > 100 µM |  | > 100 µM |  | > 100 µM |  | > 100 µM |  | > 100 µM |  | > 100 µM |  | > 100 µM
NS(=O)(=O)c1ccc(N=Nc2c(O)[nH]c3cccc(CCc4ccncc4)c23)cc1 | > 25 µM | > 25 µM | > 25 µM | > 25 µM | > 25 µM | > 25 µM | > 25 µM | > 25 µM | > 25 µM | > 25 µM | > 25 µM | > 25 µM | > 25 µM | > 25 µM | > 25 µM | > 25 µM | > 25 µM | > 25 µM | > 25 µM | > 25 µM
COc1cc(C)cc(C(=O)OCc2ccccc2)c1C1=C(Cl)C(=O)C(Cl)=CC1=O |  | > 10 µM |  | > 10 µM |  | > 10 µM |  | > 10 µM |  | > 10 µM |  | > 10 µM |  | > 10 µM |  | > 10 µM |  | 3.69 µM |  | > 10 µM
CCOC(=O)Nc1ccc2c3c(cccc13)-c1ccccc1-2 | 5.27 µM | > 100 µM | 4.32 µM | > 100 µM | > 100 µM | > 100 µM | 98.1 µM | > 100 µM | 10.7 µM | > 100 µM | 6.92 µM | > 100 µM | 2.32 µM | > 100 µM | 5.51 µM | > 100 µM | > 100 µM | > 100 µM | > 100 µM | > 100 µM
COc1ccc(C(=O)O[C@@H]2CCN3CC[C@H](C)[C@H]23)cc1 |  | > 100 µM |  | > 100 µM |  | > 100 µM |  | > 100 µM |  | > 100 µM |  | > 100 µM |  | > 100 µM |  | > 100 µM |  | > 100 µM |  | > 100 µM
